# Measured values as given in patent US9226500B2, “Pesticidal compositions and processes related thereto” (Dow AgroSciences LLC, priority 2012, dated 2016).
# Legend:
# [1] = system: Green Peach Aphid (Myzus persicae); experiment: Bioassay on Green Peach Aphid (GPA), foliar spray on cabbage seedlings; type: in vivo; settings: for pest or weed control at 200 ppm / pest or weed control at 200 µg/mL: Myzus persicae, 72 h, read-out: GPA Rating; for pest or weed control at 200 ppm: corrected % control (Abbott), 200 ppm foliar spray on cabbage seedlings, three days; for pest or weed control at 200 µg/mL: foliar, Table 5, Prophetic Compounds Subsequently Exemplified
# Description: Certain molecules disclosed in this document were tested against GPA using procedures described in the following example. In the reporting of the results, the “GPA Rating Table” was used (See Table Section). Cabbage seedlings grown in 3-inch pots, with 2-3 small (3-5 cm) true leaves, were used as test substrate. The seedlings were infested with 20-50 GPA (wingless adult and nymph stages) one day prior to chemical application. Four pots with individual seedlings were used for each treatment. Test compounds (2 mg) were dissolved in 2 mL of acetone/MeOH (1:1) solvent, forming stock solutions of 1000 ppm test compound. The stock solutions were diluted 5× with 0.025% Tween 20 in water to obtain the solution at 200 ppm test compound. A hand-held aspirator-type sprayer was used for spraying a solution to both sides of […] leaves until runoff. Reference plants (solvent check) were sprayed with the diluent only containing 20% by volume of acetone/MeOH (1:1) solvent. Treated plants were held in a holding room for three days at approximately 25° C. and ambient relative humidity (RH) prior to grading. Evaluation was conducted by counting the number of live aphids per plant under a microscope. Percent Control was measured by using Abbott's correction formula (W. S. Abbott, “A Method of Computing the Effectiveness of an Insecticide” J. Econ. Entomol. 18 (1925), pp. 265-267) as follows. Corrected % Control=100*(X−Y)/X • where • X=No. of live aphids on solvent check plants and • Y=No. of live aphids on treated plants The results are indicated in the tables entitled “Table 3: Assay Results Part 1” and “Table 4: Assay Results Part 2” (See Table Section).
# [2] = system: Corn Earworm (Helicoverpa zea); experiment: Bioassay on Corn Earworm (CEW), 128-well diet tray assay; type: in vivo; settings: Table 3, Assays Results Part 1
# Description: (§1) Certain molecules disclosed in this document were tested against BAW, CEW and CL using procedures described in the following examples. In the reporting of the results, the “BAW & CEW & CL Rating Table” was used (See Table Section).
# Bioassays on CEW (Helicoverpa zea)
# Bioassays on CEW were conducted using a 128-well diet tray assay. One to five second instar CEW larvae were placed in each well (3 mL) of the diet tray that had been previously filled with 1 mL of artificial diet to which 50 μg/cm^2 of the test compound (dissolved in 50 μL of 90:10 acetone-water mixture) had been applied (to each of eight wells) and then allowed to dry. Trays were covered with a clear self-adhesive cover, and held at 25° C., 14:10 light-dark for five to seven days. Percent mortality was recorded for the larvae in each well; activity in the eight wells was then averaged. The results are indicated in the table entitled “Table 3: Assay Results Part 1” (See Table Section).
# [3] = system: Beet Armyworm (Spodoptera exigua); experiment: Bioassay on Beet Armyworm (BAW), 128-well diet tray assay; type: in vivo; settings: Spodoptera exigua, 168 h; percent mortality of second instar larvae, 50 μg/cm^2 on artificial diet, five to seven days, 25° C.; read-out: BAW Rating
# [4] = system: Cabbage Looper (Trichoplusia ni); experiment: Bioassay on Cabbage Looper (CL), 128-well diet tray assay; type: in vivo; settings: 168 h, percent mortality of second instar larvae, 50 μg/cm^2 on artificial diet, five to seven days, 25° C., read-out: CL Rating
# Description: as §1
# Bioassays on CL (Trichoplusia ni)
# Bioassays on CL were conducted using a 128-well diet tray assay. One to five second instar CL larvae were placed in each well (3 mL) of the diet tray that had been previously filled with 1 mL of artificial diet to which 50 μg/cm^2 of the test compound (dissolved in 50 μL of 90:10 acetone-water mixture) had been applied (to each of eight wells) and then allowed to dry. Trays were covered with a clear self-adhesive cover, and held at 25° C., 14:10 light-dark for five to seven days. Percent mortality was recorded for the larvae in each well; activity in the eight wells was then averaged.
# “Table 4: Assay Results Part 2” (See Table Section).
# [5] = system: Cabbage Looper (Trichoplusia ni); experiment: as above; type: in vivo; settings: Table 5, Performed at 12.5 μg/cm^2, read-out: CL Rating
# [6] = system: Beet Armyworm (Spodoptera exigua); experiment: Bioassay on Beet Armyworm (BAW), 128-well diet tray assay; type: in vivo; settings: Table 5, Performed at 12.5 μg/cm^2, read-out: BAW Rating
smiles,measurement,setting,value
NC(=O)c1ccc(/C=C/C(c2cc(Cl)cc(Cl)c2)C(F)(F)F)cc1 (stereo not shown) [AC2],melting point,,110 to 112 °C
O=C(NCc1ccc(/C=C/C(c2cc(Cl)c(Cl)c(Cl)c2)C(F)(F)F)cc1C(F)(F)F)c1cccnc1 (stereo not shown) [CC23],GPA Rating,"[1]; Table 3, Assays Results Part 1",B (More than 0-Less than 80)
same,CEW Rating,[2],A (50-100)
O=C(NCc1ccc(/C=C/C(c2cc(Cl)c(Cl)c(Cl)c2)C(F)(F)F)cc1Cl)Oc1ccccc1Cl (stereo not shown) [CC40],CEW Rating,[2],A (50-100)
"CC(C)(NC(=O)c1ccc(/C=C/C(c2cc(Cl)c(Cl)c(Cl)c2)C(F)(F)F)cc1Br)C(=O)NCC(F)(F)F (stereo not shown) [Compound F1, (E)-2-Bromo-N-(2-methyl-1-oxo-1-((2,2,2-trifluoroethyl)amino)propan-2-yl)-4-(4,4,4-trifluoro-3-(3,4,5-trichlorophenyl)but-1-en-1-yl)benzamide]",pest or weed control at 200 ppm,[1],0 to 80%
same,"pest or weed control at 50 µg/cm2, 50 µg/cm2",[3],50 to 100%
same,"pest or weed control at 50 µg/cm2, 50 µg/cm2",[4],50 to 100%
"C[C@@H](NC(=O)c1ccc(/C=C/[C@H](c2cc(Cl)c(Cl)c(Cl)c2)C(F)(F)F)cc1C(F)(F)F)C(=O)NCC(F)(F)F [Compound F20A, N—((R)-1-Oxo-1-((2,2,2-trifluoroethyl)amino)propan-2-yl)-4-((E)-4,4,4-trifluoro-3-(3,4,5-trichlorophenyl)but-1-en-1-yl)-2-(trifluoromethyl)benzamide]",pest or weed control at 200 ppm,[1],80 to 100%
same,"pest or weed control at 50 µg/cm2, 50 µg/cm2",[3],50 to 100%
same,"pest or weed control at 50 µg/cm2, 50 µg/cm2",[4],50 to 100%
C[C@@H](NC(=O)c1ccc(/C=C/C(c2cc(Br)cc(Br)c2)C(F)(F)F)cc1C(F)(F)F)C(=O)NCC(F)(F)F (stereo partly shown) [Compound F21],"pest or weed control at 50 µg/cm2, 50 µg/cm2",[3],50 to 100%
same,"pest or weed control at 50 µg/cm2, 50 µg/cm2",[4],50 to 100%
C[C@@H](NC(=O)c1ccc(/C=C/C(c2cccc(C(F)(F)F)c2)C(F)(F)F)cc1Br)C(=O)NCC(F)(F)F (stereo partly shown) [Compound F22],"pest or weed control at 50 µg/cm2, 50 µg/cm2",[3],50 to 100%
same,"pest or weed control at 50 µg/cm2, 50 µg/cm2",[4],50 to 100%
CCC(NC(=O)c1ccc(/C=C/C(c2cc(Cl)c(Cl)c(Cl)c2)C(F)(F)F)cc1Cl)C(=O)NCC(F)(F)F (stereo not shown) [Compound F23A],"pest or weed control at 50 µg/cm2, 50 µg/cm2",[3],50 to 100%
same,"pest or weed control at 50 µg/cm2, 50 µg/cm2",[4],50 to 100%
C[C@@H](NC(=O)c1ccc(/C=C/C(c2cc(F)cc(C(F)(F)F)c2)C(F)(F)F)cc1Br)C(=O)NCC(F)(F)F (stereo partly shown) [Compound F24],"pest or weed control at 50 µg/cm2, 50 µg/cm2",[3],50 to 100%
same,"pest or weed control at 50 µg/cm2, 50 µg/cm2",[4],50 to 100%
C[C@@H](NC(=O)c1ccc(/C=C/C(c2cc(Cl)c(Cl)c(Cl)c2)C(F)(F)F)cc1Cl)C(=O)NCC(F)(F)F (stereo partly shown) [Compound F25],"pest or weed control at 50 µg/cm2, 50 µg/cm2",[3],50 to 100%
same,"pest or weed control at 50 µg/cm2, 50 µg/cm2",[4],50 to 100%
Cc1cc(/C=C/C(c2cc(Cl)c(Cl)c(Cl)c2)C(F)(F)F)ccc1C(=O)N[C@H](C)C(=S)NCC(F)(F)F (stereo partly shown) [Compound F26],"pest or weed control at 50 µg/cm2, 50 µg/cm2",[3],50 to 100%
same,"pest or weed control at 50 µg/cm2, 50 µg/cm2",[4],50 to 100%
C[C@@H](NC(=O)c1ccc(/C=C/C(c2cc(Cl)c(Cl)c(Cl)c2)C(F)(F)F)cc1Br)C(=S)NCC(F)(F)F (stereo partly shown) [Compound F27],"pest or weed control at 50 µg/cm2, 50 µg/cm2",[3],50 to 100%
same,"pest or weed control at 50 µg/cm2, 50 µg/cm2",[4],50 to 100%
C[C@@H](NC(=O)c1ccc(/C=C/C(c2cc(Cl)c(Cl)c(Cl)c2)C(F)(F)F)cc1C(F)(F)F)C(=S)NCC(F)(F)F (stereo partly shown) [Compound F28],"pest or weed control at 50 µg/cm2, 50 µg/cm2",[3],50 to 100%
same,"pest or weed control at 50 µg/cm2, 50 µg/cm2",[4],50 to 100%
Cc1cc(/C=C/C(c2cc(Cl)c(Cl)c(Cl)c2)C(F)(F)F)ccc1C(=O)NC(C)(C)C(=S)NCC(F)(F)F (stereo not shown) [Compound F29],"pest or weed control at 50 µg/cm2, 50 µg/cm2",[3],50 to 100%
same,"pest or weed control at 50 µg/cm2, 50 µg/cm2",[4],50 to 100%
C[C@@H](NC(=O)c1ccc(/C=C/C(c2cc(Cl)c(Cl)c(Cl)c2)C(F)(F)F)cc1Cl)C(=S)NCC(F)(F)F (stereo partly shown) [Compound F30],"pest or weed control at 50 µg/cm2, 50 µg/cm2",[3],50 to 100%
same,"pest or weed control at 50 µg/cm2, 50 µg/cm2",[4],50 to 100%
"Cc1cc(/C=C/C(c2cc(Cl)c(Cl)c(Cl)c2)C(F)(F)F)ccc1C(=S)NC(C)(C)C(=S)NCC(F)(F)F (stereo not shown) [Compound F31, (E)-2-Methyl-N-(2-methyl-1-thioxo-1-(2,2,2-trifluoroethylamino)propan-2-yl)-4-(4,4,4-trifluoro-3-(3,4,5-trichlorophenyl)but-1-enyl)benzothioamide]","pest or weed control at 50 µg/cm2, 50 µg/cm2",[3],50 to 100%
same,"pest or weed control at 50 µg/cm2, 50 µg/cm2",[4],50 to 100%
C[C@@H](NC(=O)c1ccc(/C=C/C(c2cc(F)cc(Br)c2)C(F)(F)F)cc1Br)C(=O)NCC(F)(F)F (stereo partly shown) [Compound P298],pest or weed control at 200 µg/mL,[1],0 to 80%
O=C(CNC(=O)c1ccc(/C=C/C(c2cc(Cl)cc(C(F)(F)F)c2)C(F)(F)F)cc1Br)NCC(F)(F)F (stereo not shown) [Compound P1411],pest or weed control at 200 µg/mL,[1],0 to 80%
O=C(CNC(=O)c1ccc(/C=C/C(c2cc(Cl)c(Cl)c(Cl)c2)C(F)(F)F)cc1C(F)(F)F)NCC(F)F (stereo not shown) [Compound P1566],pest or weed control at 200 µg/mL,[1],80 to 100%
C[C@@H](NC(=O)c1ccc(/C=C/C(c2cc(Cl)c(Cl)c(Cl)c2)C(F)(F)C(F)(F)F)cc1C(F)(F)F)C(=O)NCC(F)(F)F (stereo partly shown) [Compound P1601],pest or weed control at 200 µg/mL,[1],0 to 80%
CCNC(=O)[C@@H](C)NC(=O)c1ccc(/C=C/C(c2cc(Cl)c(Cl)c(Cl)c2)C(F)(F)F)cc1C (stereo partly shown) [Compound P1624],pest or weed control at 200 µg/mL,[1],80 to 100%
CC(NC(=O)c1ccc(/C=C/C(c2cc(Cl)c(Cl)c(Cl)c2)C(F)(F)F)cc1Br)C(=O)NCCC(F)(F)F (stereo not shown) [Compound P1631A],pest or weed control at 200 µg/mL,[1],0 to 80%
O=C(CNC(=O)c1ccc(/C=C/C(c2cc(Br)cc(Br)c2)C(F)(F)F)cc1Br)NCC(F)(F)F (stereo not shown) [Compound P1969],"pest or weed control at 12.5 µg/cm2, 12.5 µg/cm2",[5],50 to 100%
same,"pest or weed control at 12.5 µg/cm2, 12.5 µg/cm2",[6],50 to 100%
